Legend:
[1] = Long-term/accelerated stability study; assay type: physicochemical
Protocol: The crystal form A of hydrochloride, the crystal form A of methanesulfonate, and the crystal form α of acetate were placed at 25° C./60% RH and 40° C./75% RH to investigate the stability, and the results are shown in Tables 10, 11, and 12 below.

[2] = Hygroscopicity study (dynamic vapor sorption); assay type: physicochemical; settings: DVS, 25° C.
Protocol: DVS is dynamic vapor sorption: The detection was carried out using SMS DVS Advantage at 25° C. with a humidity change of 50%-95%-0%-95%-50% in steps of 10% (the last step was 5%) (the specific range of humidity was subject to the corresponding pattern, and most methods were listed here), and the judgment standard was that dm/dt was not greater than 0.002%.
Using Surface Measurement Systems advantage 2, starting at a humidity of 50% at 25° C., the humidity range was 0%-95%, the step was 10%, the judgment standard was that the mass change dM/dT of each gradient was less than 0.002%, the running time TMAX of each humidity gradient was 360 min, with two cycles, and the specific results are shown in Table 8.

[3] = Stability of crystal form, influencing factor experiment; assay type: physicochemical
Protocol: The crystal form A of hydrochloride, the crystal form A of methanesulfonate, and the crystal form α of the acetate were placed flat and left open. The stability of the samples was investigated under conditions of illumination (4500 Lux), high temperature (40° C., 60° C.), and high humidity (RH 75%, RH 92.5%), and the sampling investigation period was 30 days.

AKT1 = target: T1, AKT1 (Homo sapiens, UniProt P31749); assay: AKT1 kinase activity inhibition (KinEASE-STK S3 HTRF kit); assay type: biochemical
T1 construct: purchased Invitrogen P2999
T1 sequence (P31749 whole entry): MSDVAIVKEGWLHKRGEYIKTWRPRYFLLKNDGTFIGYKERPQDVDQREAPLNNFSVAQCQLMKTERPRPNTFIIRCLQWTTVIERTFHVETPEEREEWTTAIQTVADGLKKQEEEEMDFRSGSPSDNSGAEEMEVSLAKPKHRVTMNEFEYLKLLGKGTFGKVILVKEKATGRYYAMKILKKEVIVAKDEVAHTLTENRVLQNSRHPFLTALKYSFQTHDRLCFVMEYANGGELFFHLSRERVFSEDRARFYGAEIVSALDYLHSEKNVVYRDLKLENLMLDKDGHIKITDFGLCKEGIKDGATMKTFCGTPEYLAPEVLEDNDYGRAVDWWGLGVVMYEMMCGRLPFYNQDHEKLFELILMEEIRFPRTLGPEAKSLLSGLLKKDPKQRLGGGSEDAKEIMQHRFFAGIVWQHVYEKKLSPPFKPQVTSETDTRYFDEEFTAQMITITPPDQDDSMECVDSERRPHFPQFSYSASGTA
Protocol: (§1) The mean inhibition of kinase and the IC50 value were measured using a NovoStar microplate reader (BMG, Germany).
(§2) The following methods were used to determine the inhibitory effect of the compound of formula I on the kinase activity of AKT1/AKT2/AKT3 in vitro. The experimental method is briefly described as follows:
(§3) The enzyme activity of AKT1 (Invitrogen, P2999), AKT2 (Invitrogen, PV3184), and AKT3 (Invitrogen, PV3185) was determined using a KinEASE-STK S3 kit (Cisbio, 62ST3PEC). Test compounds were each first subjected to 3-fold gradient dilution with DMSO from 500 μM to obtain a total of 11 concentrations. The 5× buffer in the kit was diluted to 1× buffer, and DTT (Sigma, 43816-10ML) and MgCl2 were added to make the buffer contain 1 mM DTT and 5 mM MgCl2. Compounds were each subjected to 20-fold dilution with 1× buffer for later use. […] The mixture was incubated at room temperature for 60 min, values of signals emitted at […] and 620 nm after excitation at 337 nm were measured by using an HTRF module of a multi-functional microplate detector (BMG Labtech, PHERAstar FS), and the ratio of the readings was multiplied by 10,000 to obtain a ratio value. Dose-response curves were drawn according to the concentration of the compounds and the ratio values by using Graphpad Prism software, and the IC50 values for the inhibitory activity of the compounds were calculated.

[4] = Pharmacokinetic test in nude mice, intragastric administration; assay type: in vivo, Balb/c nude mice; settings: i.g., 50 or 100 mg/kg
Protocol: The drug concentration in the plasma of the test animals (Balb/c nude mice) at different time points after intragastric administration (i.g.) of the test compounds was determined by using an LC/MS/MS method. The pharmacokinetic performance of the compound of formula I in nude mice was studied and their pharmacokinetic profile was evaluated.
18 Balb/c nude mice, female, divided into 2 groups and purchased from Vital River Laboratory Animal Technology Co., Ltd.
A certain amount of compound was weighed out, and 99.8% (0.5% methylcellulose) was added into the compound, and then 0.2% Tween was added. The mixture was subjected to ultrasonic treatment to obtain a suspension, which was stirred for administration.
The nude mice were subjected to intragastric administration with a dose of 50 mg/kg or 100 mg/kg and an administration volume of 0.2 mL/10 g. […]
The content of the test compounds in the nude mice plasma after intragastric administration of different concentrations of the compound was determined: 20 μL of nude mouse plasma at each time point after administration was mixed with 50 μL of internal standard solution (camptothecin, 100 ng/mL) and 200 μL of acetonitrile, and the mixture was vortexed for 5 min and centrifuged for 10 min at 3700 rpm. […]

AKT3 = target: T2, AKT3 (Homo sapiens, UniProt Q9Y243); assay: AKT3 kinase activity inhibition (KinEASE-STK S3 HTRF kit); assay type: biochemical
T2 construct: purchased Invitrogen PV3185
T2 sequence (Q9Y243 whole entry): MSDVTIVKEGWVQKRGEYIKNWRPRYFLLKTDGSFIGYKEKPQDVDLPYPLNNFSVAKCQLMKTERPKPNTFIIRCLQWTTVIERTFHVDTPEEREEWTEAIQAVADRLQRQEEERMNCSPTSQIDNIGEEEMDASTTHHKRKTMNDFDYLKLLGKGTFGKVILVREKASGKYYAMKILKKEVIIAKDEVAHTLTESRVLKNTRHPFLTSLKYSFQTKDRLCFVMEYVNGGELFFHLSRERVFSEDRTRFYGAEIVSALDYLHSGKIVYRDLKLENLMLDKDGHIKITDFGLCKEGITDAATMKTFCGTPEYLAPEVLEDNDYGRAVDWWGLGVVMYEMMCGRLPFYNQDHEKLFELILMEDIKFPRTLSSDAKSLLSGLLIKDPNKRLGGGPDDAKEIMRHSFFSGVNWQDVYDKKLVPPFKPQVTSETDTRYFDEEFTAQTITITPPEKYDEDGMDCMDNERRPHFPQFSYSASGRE
Protocol: as §1, §2, §3

[5] = Pharmacokinetic test in rats, injection (i.v.); assay type: in vivo; settings: SD rats, 1 mg/kg
Protocol: The drug concentration in the plasma of the test animals (SD rats) at different time points after injection (i.v.) of the test compounds was determined by using an LC/MS/MS method. The pharmacokinetic performance of the compound of formula I in rats was studied and their pharmacokinetic profile was evaluated.
8 SD rats, half male and half female, divided into 2 groups, purchased from Vital River Laboratory Animal Technology Co., Ltd.
A certain amount of the compound was weighed out, and 5% of DMSO, 5% of Tween 80, and 90% of normal saline were added to obtain a colorless and clear solution.
The rats were subjected to administration by injection with a dose of 1 mg/kg and an administration volume of 5 mL/kg.
The test compound was administered by injection to the rats, and 0.2 mL of blood was collected from the orbit before administration and 5 min, 0.25 h, 0.5 h, 1.0 h, 2.0 h, 4.0 h, 8.0 h, 11.0 h, and 24.0 h after administration. […]
The content of the test compounds in the rat plasma after administration by injection of different concentrations of the compound was determined: 25 μL of rat plasma at each time point after administration was mixed with 50 μL of internal standard solution (camptothecin, 100 ng/mL) and 200 μL of acetonitrile, and the mixture was vortexed for 5 min and centrifuged for 10 min at 3700 rpm. […]

AKT2 = target: T3, AKT2 (Homo sapiens, UniProt P31751); assay: AKT2 kinase activity inhibition (KinEASE-STK S3 HTRF kit); assay type: biochemical
T3 construct: purchased Invitrogen PV3184
T3 sequence (P31751 whole entry): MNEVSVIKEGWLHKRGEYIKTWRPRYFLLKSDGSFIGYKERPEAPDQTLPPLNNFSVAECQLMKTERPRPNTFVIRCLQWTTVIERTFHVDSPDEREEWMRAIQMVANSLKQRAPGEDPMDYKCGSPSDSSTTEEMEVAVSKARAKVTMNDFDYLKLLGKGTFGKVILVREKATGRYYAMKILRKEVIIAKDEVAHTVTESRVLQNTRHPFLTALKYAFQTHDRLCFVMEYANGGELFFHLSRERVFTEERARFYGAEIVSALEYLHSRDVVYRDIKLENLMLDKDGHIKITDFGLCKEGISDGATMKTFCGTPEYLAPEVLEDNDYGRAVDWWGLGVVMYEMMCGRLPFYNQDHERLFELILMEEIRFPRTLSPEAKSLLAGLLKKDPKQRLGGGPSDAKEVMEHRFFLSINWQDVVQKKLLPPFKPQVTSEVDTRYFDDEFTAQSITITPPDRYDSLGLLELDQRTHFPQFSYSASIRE
Protocol: as §1, §2, §3

Compound: CC(C)NCC(C(=O)N1C2CCC1CN(c1ncnc3c1C(C)(C)C(=O)N3)C2)c1ccc(Cl)cc1.Cl (centres unmarked) [Crystal form A of hydrochloride]
- Crystal form ([1]; 25° C./60% RH): Untransformed
- Purity % 1 month ([1]; 25° C./60% RH): 99.3%
- Purity % 2 month ([1]; 25° C./60% RH): 99.3%
- Purity % 3 month ([1]; 25° C./60% RH): 99.2%
- Purity % 6 month ([1]; 25° C./60% RH): 99.3%
- Purity % Onset ([1]; 25° C./60% RH): 99.3%
- physical and chemical stability (conclusion) ([1]; 25° C./60 RH and 40° C./75 RH, 6 months): good physical and chemical stability
- Crystal form ([1]; 40° C./75% RH): Untransformed
- Purity % 1 month ([1]; 40° C./75% RH): 99.3%
- Purity % 2 month ([1]; 40° C./75% RH): 99.3%
- Purity % 3 month ([1]; 40° C./75% RH): 99.2%
- Purity % 6 month ([1]; 40° C./75% RH): 99.3%
- Purity % Onset ([1]; 40° C./75% RH): 99.3%
- mass change 0% RH-80.0% RH [2]: 0.60%
- mass change 0.0% RH-95.0% RH [2]: 0.79%
- Crystal form after hygroscopicity test ([2]; two cycles): Untransformed
- Crystal form ([3]; 40° C., 5 days, open): Untransformed
- Purity % ([3]; 40° C., 5 days, open): 99.3%
- Crystal form ([3]; 40° C., 10 days, open): Untransformed
- Purity % ([3]; 40° C., 10 days, open): 99.3%
- Crystal form ([3]; 40° C., 30 days, open): Untransformed
- Purity % ([3]; 40° C., 30 days, open): 99.3%
- Crystal form ([3]; 60° C., 5 days, open): Untransformed
- Purity % ([3]; 60° C., 5 days, open): 99.3%
- Crystal form ([3]; 60° C., 10 days, open): Untransformed
- Purity % ([3]; 60° C., 10 days, open): 99.3%
- Crystal form ([3]; 60° C., 30 days, open): Untransformed
- Purity % ([3]; 60° C., 30 days, open): 99.2%
- Crystal form ([3]; 75% RH, 5 days, open): Untransformed
- Purity % ([3]; 75% RH, 5 days, open): 99.3%
- Crystal form ([3]; 75% RH, 10 days, open): Untransformed
- Purity % ([3]; 75% RH, 10 days, open): 99.3%
- Crystal form ([3]; 75% RH, 30 days, open): Untransformed
- Purity % ([3]; 75% RH, 30 days, open): 99.4%
- Crystal form ([3]; 92.5% RH, 5 days, open): Untransformed
- Purity % ([3]; 92.5% RH, 5 days, open): 99.3%
- Crystal form ([3]; 92.5% RH, 10 days, open): Untransformed
- Purity % ([3]; 92.5% RH, 10 days, open): 99.3%
- Crystal form ([3]; 92.5% RH, 30 days, open): Untransformed
- Purity % ([3]; 92.5% RH, 30 days, open): 99.3%
- Crystal form ([3]; 4500 Lux, 5 days, open): Untransformed
- Purity % ([3]; 4500 Lux, 5 days, open): 99.3%
- Crystal form ([3]; 4500 Lux, 10 days, open): Untransformed
- Purity % ([3]; 4500 Lux, 10 days, open): 99.3%
- Crystal form ([3]; 4500 Lux, 30 days, open): Untransformed
- Purity % ([3]; 4500 Lux, 30 days, open): 99.3%
- Purity % ([3]; Onset, 0 days): 99.3%
- physical and chemical stability (conclusion) ([3]; illumination, 40° C. and 60° C., humidity 75% and 92.5%, 30 days): good physical and chemical stability

Compound: CC(C)NC[C@@H](C(=O)N1C2CCC1CN(c1ncnc3c1C(C)(C)C(=O)N3)C2)c1ccc(Cl)cc1 [Compound of formula I]
- inhibitory effect on AKT1 enzyme (conclusion) (AKT1): good inhibitory effect
- pharmacokinetic absorption (conclusion) [4]: good pharmacokinetic absorption
- inhibitory effect on AKT3 enzyme (conclusion) (AKT3): good inhibitory effect
- pharmacokinetics (conclusion) [5]: good pharmacokinetics
- inhibitory effect on AKT2 enzyme (conclusion) (AKT2): good inhibitory effect
